Assay results as given in publication doi:10.1101/2025.09.24.678246 (bioRxiv, 2025).
≈ marks a conversion by molar mass, not a printed value. Where “and” joins values, the source holds several entries; their conditions need not be identical. Equal values may be shown once. Read-outs that look alike come from different tables or passages of the source.

Columns and labels:
Mtb H37Rv = type: in vivo, BALB/c mice
BioA = BioA (Mycobacterium tuberculosis, UniProt P9WQ81); experiment: BioA Ki determination (tight binding, Morrison equation, 5 nM BioA); type: biochemical
[1] = p.o.; for C48 in Plasma / C48 in lung: CD-1 mice
WT H37Rv = experiment: Time-kill kinetics in GAST medium; type: cell-based, Mycobacterium tuberculosis; settings: for OD580 of C48 kill kinetics: 10µM C48, GAST medium
M. abscessus = experiment: MIC screening against M. abscessus (NTM); type: cell-based; settings: Mycobacteroides abscessus
S. aureus = experiment: MIC screening: S. aureus; type: cell-based
Source text: Supplement media-1.docx, table 4: Supplemental Table S4. MIC screening of C48 against a panel of pathogens and strains | column: C48 MIC (µM)^b
Wherever bacterial burden per mouse, Fig. 5B is given: unit not given here.

Chain of BioA (P9WQ81 whole entry, looked up): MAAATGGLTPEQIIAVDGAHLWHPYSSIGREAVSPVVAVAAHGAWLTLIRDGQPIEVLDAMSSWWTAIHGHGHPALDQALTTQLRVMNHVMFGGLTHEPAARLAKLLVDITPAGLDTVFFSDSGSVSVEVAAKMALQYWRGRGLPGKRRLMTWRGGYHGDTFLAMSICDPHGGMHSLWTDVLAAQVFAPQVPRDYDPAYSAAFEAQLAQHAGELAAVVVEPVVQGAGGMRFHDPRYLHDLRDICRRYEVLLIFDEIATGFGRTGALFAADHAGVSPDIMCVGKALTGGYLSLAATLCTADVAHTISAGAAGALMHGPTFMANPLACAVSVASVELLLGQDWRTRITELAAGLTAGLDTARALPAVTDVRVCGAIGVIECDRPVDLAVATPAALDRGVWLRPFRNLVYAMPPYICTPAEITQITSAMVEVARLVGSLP

## O=C1CCc2cc(N3CCN(C(=O)c4ccc(F)c(Br)c4)CC3)ncc21 [C48]
Mtb H37Rv; 100 mg/kg, day 28
  bacterial burden per mouse, Fig. 5B: 170000
Mtb H37Rv; 100 mg/kg, day 42
  bacterial burden per mouse, Fig. 5B: 325000 and 425000 and 1800000 and 566667 and 170000 and 673000
Mtb H37Rv; 200mg/kg C48 p.o., Day 42, standard acute model, BALB/c, per mouse
  spleen CFU: 7225 CFU and 14500 CFU and 8975 CFU and 12750 CFU and 18750 CFU and 7075 CFU
Mtb H37Rv; 200 mg/kg, day 14 (values identical to Vehicle Control: baseline)
  bacterial burden per mouse, Fig. 5B: 16500 and 43500 and 12750 and 24500 and 14500
Mtb H37Rv; 200 mg/kg, day 42
  bacterial burden per mouse, Fig. 5B: 552500 and 365000 and 477500 and 437500 and 560000 and 517500
Mtb H37Rv; 100 and 200 mg/kg p.o.
  efficacy in the conventional mouse model of TB: failed to show efficacy
BioA; 5 nM BioA, Morrison analysis, read-out: BioA inhibition constant (Ki)
  Ki: 0.2 nM
BioA; Fig. 2A, [Inhibitor C48] 0.520246 nM, read-out: Fractional Vilocity (Vi/Vo %)
  remaining activity at 0.000520246 µM: 104%
BioA; Fig. 2A, [Inhibitor C48] 0.780369 nM, read-out: Fractional Vilocity (Vi/Vo %)
  remaining activity at 0.000780369 µM: 90.9%
BioA; Fig. 2A, [Inhibitor C48] 1.17055 nM, read-out: Fractional Vilocity (Vi/Vo %)
  remaining activity at 0.00117055 µM: 87.2%
BioA; Fig. 2A, [Inhibitor C48] 1.75583 nM, read-out: Fractional Vilocity (Vi/Vo %)
  remaining activity at 0.00175583 µM: 81%
BioA; Fig. 2A, [Inhibitor C48] 2.63374 nM, read-out: Fractional Vilocity (Vi/Vo %)
  remaining activity at 0.00263374 µM: 71.8%
BioA; Fig. 2A, [Inhibitor C48] 3.95062 nM, read-out: Fractional Vilocity (Vi/Vo %)
  remaining activity at 0.00395062 µM: 58.3%
BioA; Fig. 2A, [Inhibitor C48] 5.92593 nM, read-out: Fractional Vilocity (Vi/Vo %)
  remaining activity at 0.00592593 µM: 37.4%
BioA; Fig. 2A, [Inhibitor C48] 7.4 nM, read-out: Fractional Vilocity (Vi/Vo %)
  remaining activity at 0.0074 µM: 29.2%
BioA; Fig. 2A, [Inhibitor C48] 8.88889 nM, read-out: Fractional Vilocity (Vi/Vo %)
  remaining activity at 0.00888889 µM: 20.9%
BioA; Fig. 2A, [Inhibitor C48] 13.3333 nM, read-out: Fractional Vilocity (Vi/Vo %)
  remaining activity at 0.0133333 µM: 9.57%
BioA; Fig. 2A, [Inhibitor C48] 20 nM, read-out: Fractional Vilocity (Vi/Vo %)
  remaining activity at 0.02 µM: 4.24%
BioA; Fig. 2A, [Inhibitor C48] 30 nM, read-out: Fractional Vilocity (Vi/Vo %)
  remaining activity at 0.03 µM: 1.42%
BioA; read-out: Fractional Vilocity (Vi/Vo %)
  remaining activity at […]: 13.1%
[1]
  delivery into the lungs: efficiently delivered into the lungs
[1]; 0 hr
  C48 in Plasma: 0 ng/mL
  C48 in lung: 0 ng/mL
[1]; 1 hr
  C48 in Plasma: 17400 ng/mL and 12000 ng/mL and 17900 ng/mL
  C48 in lung: 11264.6 ng/mL and 8012.8 ng/mL and 9904.4 ng/mL
[1]; 3 hr
  C48 in Plasma: 7710 ng/mL and 11800 ng/mL and 12100 ng/mL
  C48 in lung: 3273.1 ng/mL and 5600.4 ng/mL and 5866.1 ng/mL
WT H37Rv; 10 μM, biotin-free medium, after about three doublings
  rate of CFU decline: one log10 CFU per week
WT H37Rv; day 0
  OD580 of C48 kill kinetics: 0.001
WT H37Rv; day 2
  OD580 of C48 kill kinetics: 0.004
WT H37Rv; day 4
  OD580 of C48 kill kinetics: 0.008
WT H37Rv; day 8
  OD580 of C48 kill kinetics: 0.01
WT H37Rv; day 11
  OD580 of C48 kill kinetics: 0.016
WT H37Rv; day 14
  OD580 of C48 kill kinetics: 0.012
WT H37Rv; day 16
  OD580 of C48 kill kinetics: 0.012
WT H37Rv; day 18
  OD580 of C48 kill kinetics: 0.012
WT H37Rv; day 21
  OD580 of C48 kill kinetics: 0.01
WT H37Rv; day 23
  OD580 of C48 kill kinetics: 0.01
WT H37Rv; day 25
  OD580 of C48 kill kinetics: 0.01
WT H37Rv; day 28
  OD580 of C48 kill kinetics: 0.008
WT H37Rv; day 32
  OD580 of C48 kill kinetics: 0.008
WT H37Rv; day 35
  OD580 of C48 kill kinetics: 0.008
WT H37Rv; day 39
  OD580 of C48 kill kinetics: 0.008
WT H37Rv; day 42
  OD580 of C48 kill kinetics: 0.008
WT H37Rv; day 46
  OD580 of C48 kill kinetics: 0.008
WT H37Rv; day 49
  OD580 of C48 kill kinetics: 0.008
WT H37Rv; day 53
  OD580 of C48 kill kinetics: 0.008
WT H37Rv; day 56
  OD580 of C48 kill kinetics: 0.008
WT H37Rv; day 60
  OD580 of C48 kill kinetics: 0.008
WT H37Rv; day 63
  OD580 of C48 kill kinetics: 0.008
WT H37Rv; day 67
  OD580 of C48 kill kinetics: 0.008
M. abscessus; ATCC19977, read-out: MIC (50% growth inhibition), M. abscessus (ATCC19977), reference strain
  MIC: 0.5 µM (≈ 0.209 µg/mL)
M. abscessus; M. abscessus, NTM, footnote mark d, read-out: MIC
  MIC: 0.5 to 1 µM (≈ 0.209 to 0.418 µg/mL)
M. abscessus; read-out: MIC (50% growth inhibition), M. abscessus BWH-B, clinical strain
  MIC: 0.5 µM (≈ 0.209 µg/mL)
M. abscessus; read-out: MIC (50% growth inhibition), M. abscessus BWH-D, clinical strain
  MIC: 0.5 µM (≈ 0.209 µg/mL)
M. abscessus; read-out: MIC (50% growth inhibition), M. abscessus T35, clinical strain
  MIC: 0.5 µM (≈ 0.209 µg/mL)
M. abscessus; read-out: MIC (50% growth inhibition), M. abscessus T37, clinical strain
  MIC: 1 µM (≈ 0.418 µg/mL)
M. abscessus; read-out: MIC (50% growth inhibition), M. abscessus T38, clinical strain
  MIC: 1 µM (≈ 0.418 µg/mL)
M. abscessus; read-out: MIC (50% growth inhibition), M. abscessus T49, clinical strain
  MIC: 0.5 µM (≈ 0.209 µg/mL)
M. abscessus; read-out: MICs against nontuberculous mycobacteria (NTM)
  MIC: 0.5 to 1 µM (≈ 0.209 to 0.418 µg/mL)
S. aureus
  MIC: inactive
